PubChem BioAssay (NCI)
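Five compound concentrations were applied to cells in 96-well plates for 48 hours; endpoints were derived by simple linear interpolation of the resulting dose-response curve. The concentration for 50% growth inhibition is given as GI50. TGI denotes the concentration required for complete inhibition of growth.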

Assays:
Assay in all cases: inhibition of tumour cell growth, NCI panel, 48 h
786-0 renal = system: 786-0 renal
A498 renal = system: A498 renal
CAKI-1 renal = system: CAKI-1 renal
HT29 colon = system: HT29 colon
IGROV1 ovarian = system: IGROV1 ovarian
OVCAR-4 ovarian = system: OVCAR-4 ovarian
SF-268 CNS = system: SF-268 CNS
BT-549 breast = system: BT-549 breast
HS 578T breast = system: HS 578T breast
MCF7 breast = system: MCF7 breast

SMILES | TGI (786-0 renal) [µM] | TGI (A498 renal) [µM] | TGI (CAKI-1 renal) [µM] | TGI (HT29 colon) [µM] | TGI (IGROV1 ovarian) [µM] | TGI (OVCAR-4 ovarian) [µM] | TGI (SF-268 CNS) [µM] | GI50 (786-0 renal) [µM] | GI50 (A498 renal) [µM] | GI50 (BT-549 breast) [µM] | TGI (BT-549 breast) [µM] | GI50 (CAKI-1 renal) [µM] | GI50 (HS 578T breast) [µM] | TGI (HS 578T breast) [µM] | GI50 (HT29 colon) [µM] | GI50 (IGROV1 ovarian) [µM] | GI50 (MCF7 breast) [µM] | TGI (MCF7 breast) [µM] | GI50 (OVCAR-4 ovarian) [µM] | GI50 (SF-268 CNS) [µM]
CC(=O)OC1CCC2OOC1O2 (stereo not given) | > 100 | > 100 | > 100 | > 100 | > 100 | > 100 | > 100 |  |  |  |  |  |  |  |  |  |  |  |  | 
CCN1CCN(c2nc(C)cc(NCc3cc(Nc4ccnc5cc(Cl)ccc45)ccc3F)n2)CC1 | 3.13 | 4.01 | 4.72 | 6.17 | 7.27 | 7.7 | 5.79 | 1.54 | 1.94 | 1.62 | 4.28 | 1.83 | 1.72 | 5.29 | 1.96 | 2.2 | 1.81 | 5.31 | 1.59 | 1.89
Cc1ccc2c(c1)-c1c3c(nn1C)-c1ccccc1SC3O2 (stereo not given) | > 100 | > 100 |  | > 100 | > 100 |  | > 100 |  |  |  |  |  |  |  |  |  |  |  |  | 
O=C(O)c1ccc2c(c1)C(=O)N(c1ccc(S(=O)(=O)c3ccc(N4C(=O)c5ccc(C(=O)O)cc5C4=O)cc3)cc1)C2=O | > 100 | > 100 | > 100 | > 100 |  | > 100 | > 100 |  |  |  |  |  |  |  |  |  |  |  |  | 
COc1ccc(CN2C(=O)[C@@H]3Cc4c(OC)c(C)c(OC)c(OC)c4[C@H](/C2=C\c2cc(OC)c(OC)c(C)c2OC)N3C(=O)OC(C)C)cc1 | > 100 | > 100 | > 100 | > 100 | > 100 | > 100 | > 100 |  |  |  |  |  |  |  |  |  |  |  |  | 
Cc1ccccc1NC(=O)/C(=N\NC(N)=S)C(C#N)c1ccccc1 (stereo not given) | > 100 | > 100 |  | > 100 | > 100 | > 100 | > 100 |  |  |  |  |  |  |  |  |  |  |  |  | 
Nc1ccccc1C#C/C=C\C#Cc1ccccc1C#CCO | 17.8 |  | 18 |  | > 50 | 41.4 | 24.3 | 6.39 |  | 10.9 | 41.6 | 4.1 | 8.89 | 27.8 |  | 0.382 | 7.87 | > 50 | 14 | 7.6
O=C(Oc1ccccc1)N(c1ccccc1)c1ccccc1 | 83.4 | 62.7 | 37.6 | > 100 | > 100 | > 100 | > 100 | 26.2 | 10.4 | 18.2 | 41.2 | 12.1 |  |  | 36.9 | 38.1 |  |  | 25.1 | 33.1
CN(C)NC(=O)/C(=C/c1ccc(Cl)cc1)NC(=O)c1ccccc1 | > 100 | > 100 | > 100 | > 100 | > 100 | > 100 | > 100 |  |  |  |  |  |  |  |  |  |  |  |  | 
CN(C)NC1=C([N+](=O)[O-])C=NN(c2ccccc2)C1 | 3.24 | 36 | 3.64 | 3.66 | 3.9 | 3.22 | 3.51 |  |  |  |  |  |  |  |  |  |  |  |  | 
Cc1ccccc1NC(=O)Cc1nc2ccccc2s1 | 31.6 | 35.7 | 36.8 | 38.4 |  | 32.5 | 33 |  |  |  |  |  |  |  |  |  |  |  |  | 
CC1(C)c2ccccc2N2C(c3ccccc3)=NOC21C (stereo not given) | > 100 | > 100 | > 100 | > 100 | > 100 | > 100 | > 100 |  |  |  |  |  |  |  |  |  |  |  |  | 
COC(=O)c1c(O)ccc(O)c1C(C(C)=O)C(C)=O | > 100 | > 100 | > 100 | > 100 | > 100 | > 100 | > 100 |  |  |  |  |  |  |  |  |  |  |  |  | 
Cc1ccc(N)cc1[As]=[As]c1cc(N)ccc1C (stereo not given) | 3.03 | 2.64 | 2.86 |  | 4.18 | 2.79 | 3.02 | 1.64 | 1.29 | 1.46 | 2.8 | 1.5 | 2.81 | > 100 |  | 1.88 | 0.537 | 2.75 | 1.42 | 1.56
C[P+]1(Cc2ccccc2)CCCC1 | > 100 | > 100 |  | > 100 | > 100 |  |  |  |  |  |  |  |  |  |  |  |  |  |  | 
Cc1cccc(C)c1NC(=O)CCC(=O)NC(N)=NC#N | > 100 | > 100 | > 100 | > 100 | > 100 | > 100 | > 100 |  |  |  |  |  |  |  |  |  |  |  |  | 
O=C(/C=C/c1ccccc1)c1cccc2ccccc12 | 7.25 | 6.75 | 6.62 | 12.9 | 10.9 |  | 5.13 | 2.82 | 2.3 | 2.31 | 5.86 | 2.11 | 5.43 | > 100 | 3.69 | 3.4 | 3.07 | 11.1 |  | 1.99
C[C@]12CC[C@H](O[C@@H]3O[C@H](CO[C@@H]4O[C@H](CO)[C@@H](O)[C@H](O)[C@H]4O)[C@@H](O)[C@H](O)[C@H]3O)C[C@@H]1CC[C@@H]1[C@@H]2CC[C@]2(C)[C@@H](C3=CC(=O)OC3)CC[C@]12O | > 100 | 70 | > 58.9 | > 100 | 56.3 | 57.8 | 29.5 |  |  |  | 21.5 |  |  | > 100 |  |  |  |  |  | 
CC(=O)[CH-]C(=O)c1ccccc1.CC(=O)[CH-]C(=O)c1ccccc1.Cl.[O-]c1ccnc2ccccc12.[O-]c1ccnc2ccccc12.[Ti+4] | > 100 | > 100 | > 100 | > 100 | > 100 | > 100 | > 100 | > 100 | > 100 |  |  | 48.7 |  |  | > 100 | > 100 |  |  | > 100 | > 100
CC[C@@H](C)/C=C(C)/C=C/C(=O)c1c(O)c(-c2ccc(OC(=O)[C@@]34CC[C@@](C)(C(=O)O3)C4(C)C)cc2)cn(O)c1=O | 4.98 | > 50 | 11.9 | > 50 | 41.4 | > 50 | 6.6 | 1.55 | 5.6 |  |  | 1.6 | 3.33 | > 50 | 21.2 | 1.72 | 1.82 | > 50 | 1.23 | 0.888
